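Method: 48-hour compound exposure of cells in 96-well plates, five concentrations, linear interpolation of endpoints. GI50: concentration for 50% inhibition of growth.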 Activity calls are given as the source filed them. Cut-off read from the data, not from the text of the source: active = GI50 up to about 1.1 µM and inactive = higher.
Assays:
Assay in all cases: DTP human tumour cell line panel, 48 h
HCC 2998 = test system: HCC 2998
RPMI-8226 = test system: RPMI-8226
SF-539 = test system: SF-539
OVCAR-4 = test system: OVCAR-4
IGROV-1 = test system: IGROV-1
Malme-3M = test system: Malme-3M
SN12C = test system: SN12C
K562 = test system: K562
HL-60 = test system: HL-60
SK-OV-3 = test system: SK-OV-3
OVCAR-3 = test system: OVCAR-3
NCI-H522 = test system: NCI-H522
KM12 = test system: KM12
SF-295 = test system: SF-295
EKVX = test system: EKVX
SF-268 = test system: SF-268
SK-MEL-28 = test system: SK-MEL-28
SNB-75 = test system: SNB-75
NCI-H23 = test system: NCI-H23
UO-31 = test system: UO-31

N=c1n(C(=O)N2CCCC2)c2cc(Cl)ccc2n1C1=NCCN1
GI50 (HCC 2998): > 100 µM (inactive) | GI50 (RPMI-8226): 15.7 µM (inactive) | GI50 (SF-539): 55.2 µM (inactive) | GI50 (OVCAR-4): > 100 µM (inactive) | GI50 (IGROV-1): 73.3 µM (inactive) | GI50 (Malme-3M): 99.8 µM (inactive) | GI50 (SN12C): 70.5 µM (inactive) | GI50 (K562): 40.6 µM (inactive) | GI50 (HL-60): 38.8 µM (inactive) | GI50 (SK-OV-3): > 100 µM (inactive) | GI50 (OVCAR-3): 80.5 µM (inactive) | GI50 (NCI-H522): 38.6 µM (inactive) | GI50 (KM12): > 100 µM (inactive) | GI50 (SF-295): > 100 µM (inactive) | GI50 (EKVX): > 100 µM (inactive) | GI50 (SF-268): > 100 µM (inactive) | GI50 (SK-MEL-28): 95.3 µM (inactive)

C=CCNC(=O)N(CCC)CCCC(NC(C)=O)C(=O)NCc1ccccc1 (stereo not given)
GI50 (RPMI-8226): > 100 µM (inactive) | GI50 (SF-539): > 100 µM (inactive) | GI50 (OVCAR-4): > 100 µM (inactive) | GI50 (IGROV-1): > 100 µM (inactive) | GI50 (SNB-75): > 100 µM (inactive) | GI50 (Malme-3M): > 100 µM (inactive) | GI50 (NCI-H23): > 100 µM (inactive) | GI50 (SN12C): > 100 µM (inactive) | GI50 (K562): > 100 µM (inactive) | GI50 (HL-60): > 100 µM (inactive) | GI50 (SK-OV-3): > 100 µM (inactive) | GI50 (OVCAR-3): > 100 µM (inactive) | GI50 (NCI-H522): > 100 µM (inactive) | GI50 (KM12): > 100 µM (inactive) | GI50 (SF-295): > 100 µM (inactive) | GI50 (EKVX): > 100 µM (inactive) | GI50 (SF-268): > 100 µM (inactive) | GI50 (UO-31): > 100 µM (inactive) | GI50 (SK-MEL-28): > 100 µM (inactive)

COc1cccc(C2c3cc4c(cc3OC(N3CCOCC3)C2C)OCO4)c1 (stereo not given)
GI50 (RPMI-8226): > 100 µM (inactive) | GI50 (OVCAR-4): 14.7 µM (inactive) | GI50 (IGROV-1): 15 µM (inactive) | GI50 (SNB-75): 28.3 µM (inactive) | GI50 (Malme-3M): 10.5 µM (inactive) | GI50 (SN12C): 24.3 µM (inactive) | GI50 (K562): 3.1 µM (inactive) | GI50 (SK-OV-3): 17.9 µM (inactive) | GI50 (OVCAR-3): 7.74 µM (inactive) | GI50 (NCI-H522): 8.24 µM (inactive) | GI50 (SF-295): 9.64 µM (inactive) | GI50 (EKVX): 26.7 µM (inactive) | GI50 (SF-268): 16.7 µM (inactive) | GI50 (UO-31): 12.8 µM (inactive)

CCOC(=O)c1sc2nc(SC)nc(N3CCCCC3)c2c1N
GI50 (HCC 2998): > 100 µM (inactive) | GI50 (RPMI-8226): > 100 µM (inactive) | GI50 (OVCAR-4): > 100 µM (inactive) | GI50 (IGROV-1): > 100 µM (inactive) | GI50 (SNB-75): > 100 µM (inactive) | GI50 (Malme-3M): > 100 µM (inactive) | GI50 (NCI-H23): > 100 µM (inactive) | GI50 (SN12C): > 100 µM (inactive) | GI50 (K562): > 100 µM (inactive) | GI50 (SK-OV-3): > 100 µM (inactive) | GI50 (OVCAR-3): > 100 µM (inactive) | GI50 (NCI-H522): > 100 µM (inactive) | GI50 (KM12): > 100 µM (inactive) | GI50 (SF-295): > 100 µM (inactive) | GI50 (SF-268): > 100 µM (inactive) | GI50 (UO-31): > 100 µM (inactive) | GI50 (SK-MEL-28): > 100 µM (inactive)

CC1=CC(=O)CC2(C)CCC(C(C)CC(=O)CC(C)C)CC12 (stereo not given)
GI50 (RPMI-8226): 20.2 µM (inactive) | GI50 (SF-539): 16.4 µM (inactive) | GI50 (OVCAR-4): > 100 µM (inactive) | GI50 (IGROV-1): 26.2 µM (inactive) | GI50 (SNB-75): > 100 µM (inactive) | GI50 (Malme-3M): 24.9 µM (inactive) | GI50 (NCI-H23): 35.4 µM (inactive) | GI50 (SN12C): 17.7 µM (inactive) | GI50 (K562): 24.5 µM (inactive) | GI50 (HL-60): 4.39 µM (inactive) | GI50 (NCI-H522): 15.1 µM (inactive) | GI50 (KM12): 19 µM (inactive) | GI50 (SF-295): 32.5 µM (inactive) | GI50 (EKVX): 48.9 µM (inactive) | GI50 (SF-268): 55.8 µM (inactive) | GI50 (UO-31): 31.2 µM (inactive) | GI50 (SK-MEL-28): 26 µM (inactive)

Nc1ncnc2c1ncn2C1C(O)C=C(CO)C1O (stereo not given)
GI50 (HCC 2998): > 625 µM (inactive) | GI50 (RPMI-8226): > 625 µM (inactive) | GI50 (SF-539): > 625 µM (inactive) | GI50 (OVCAR-4): > 625 µM (inactive) | GI50 (IGROV-1): > 625 µM (inactive) | GI50 (Malme-3M): > 625 µM (inactive) | GI50 (SN12C): > 625 µM (inactive) | GI50 (HL-60): 467 µM (inactive) | GI50 (SK-OV-3): > 625 µM (inactive) | GI50 (OVCAR-3): > 625 µM (inactive) | GI50 (KM12): > 625 µM (inactive) | GI50 (SF-295): > 625 µM (inactive) | GI50 (SF-268): > 625 µM (inactive) | GI50 (UO-31): > 625 µM (inactive)

COC(=O)N[C@H](C(=O)NC(OCc1ccccc1)C1COC(C)(C)O1)C(C)O[Si](C)(C)C(C)(C)C (stereo not given in full)
GI50 (HCC 2998): 77.8 µM (inactive) | GI50 (RPMI-8226): 22.4 µM (inactive) | GI50 (OVCAR-4): > 100 µM (inactive) | GI50 (IGROV-1): > 100 µM (inactive) | GI50 (SNB-75): 38.4 µM (inactive) | GI50 (Malme-3M): > 100 µM (inactive) | GI50 (NCI-H23): > 100 µM (inactive) | GI50 (K562): > 100 µM (inactive) | GI50 (HL-60): 75.7 µM (inactive) | GI50 (SK-OV-3): > 100 µM (inactive) | GI50 (EKVX): > 100 µM (inactive) | GI50 (SF-268): > 100 µM (inactive) | GI50 (UO-31): > 100 µM (inactive) | GI50 (SK-MEL-28): > 100 µM (inactive)

OC1(c2ccc(Cl)cc2)c2ccc3ccccc3c2C2=N[C@H]3CCCC[C@@H]3N21 (stereo not given in full)
GI50 (RPMI-8226): 7.73 µM (inactive) | GI50 (SF-539): 5.71 µM (inactive) | GI50 (OVCAR-4): > 100 µM (inactive) | GI50 (IGROV-1): 13.5 µM (inactive) | GI50 (Malme-3M): 0.284 µM (active) | GI50 (NCI-H23): 37 µM (inactive) | GI50 (SN12C): 38.5 µM (inactive) | GI50 (K562): 13.2 µM (inactive) | GI50 (HL-60): 5.69 µM (inactive) | GI50 (SK-OV-3): 14 µM (inactive) | GI50 (OVCAR-3): 1.63 µM (inactive) | GI50 (NCI-H522): 10.3 µM (inactive) | GI50 (KM12): 5.16 µM (inactive) | GI50 (SF-295): 3.64 µM (inactive) | GI50 (EKVX): 3.09 µM (inactive) | GI50 (SF-268): 9.02 µM (inactive) | GI50 (UO-31): 5.73 µM (inactive) | GI50 (SK-MEL-28): > 100 µM (inactive)
